The values that follow are results of earlier work, collected in PMC8352932, “Targeted activity of the small molecule kinase inhibitor Pz-1 towards RET and TRK kinases” (Scientific Reports, 2021).

“And” between values parts separate entries of the source, which are not always exact repeats. Identical values can stand only once.

What all share (details): read-out: cell proliferation IC50
One series relates to TEL-TRKA Ba/F3 cells.
A further series relates to MPRIP-TRKA Ba/F3 cells. Also on record: method as in PMID 24162815.
In a further series the test system is KIF5B-RET Ba/F3 cells.

Consider `CN1CCN(c2ccc(C(=O)Nc3n[nH]c4ccc(Cc5cc(F)cc(F)c5)cc34)c(NC3CCOCC3)c2)CC1` [entrectinib], for which the IC50 in the series on TEL-TRKA Ba/F3 cells was 2.8 nM. `O=C(Nc1cnn2ccc(N3CCC[C@@H]3c3cc(F)ccc3F)nc12)N1CC[C@H](O)C1` [larotrectinib]: in the series on MPRIP-TRKA Ba/F3 cells, the IC50 is 8 nM.

As to `CO[C@]1(C(=O)N[C@@H](C)c2ccc(-n3cc(F)cn3)nc2)CC[C@H](c2nc(C)cc(Nc3cc(C)[nH]n3)n2)CC1` [pralsetinib], the IC50 in the series with KIF5B-RET Ba/F3 cells was 9.7 nM and 16.5 nM. As to `COc1cc2nccc(Oc3ccc(NC(=O)C4(C(=O)Nc5ccc(F)cc5)CC4)cc3)c2cc1OC` [cabozantinib], the IC50 with KIF5B-RET Ba/F3 cells was 341 nM.

With `COc1ccc(CN2C3CC2CN(c2ccc(-c4cc(OCC(C)(C)O)cn5ncc(C#N)c45)cn2)C3)cn1` [selpercatinib], in the series with KIF5B-RET Ba/F3 cells, the IC50 is 8 nM.
